≈ marks a conversion by molar mass, not a printed value.

We go through ten compounds from ChEMBL document CHEMBL3044904, “Mild and highly efficient copper (II) sulfate catalyzed one pot synthesis of 2-aryl benzimidazole using atmospheric air as an oxidant and its antibacterial study” (2013).

Holding throughout (format): functional
One experiment concerns Enterococcus faecalis. Put plainly: Antibacterial activity against Enterococcus feacalis clinical isolate assessed as growth inhibition after 24 hr by two-fold serial dilution method.
The next experiment concerns Salmonella typhi. Briefly: Antibacterial activity against Salmonella enterica subsp. enterica serovar Typhi ATCC 15499 assessed as growth inhibition after 24 hr by two-fold serial dilution method. The conditions noted are these: ATCC 15499, 24 h.
In the next experiment the test system is Pseudomonas aeruginosa. Briefly: Antibacterial activity against Pseudomonas aeruginosa ATCC 23564 assessed as growth inhibition after 24 hr by two-fold serial dilution method. The conditions noted are these: ATCC 23564, 24 h.
In another experiment the test system is Staphylococcus aureus. Put plainly: Antibacterial activity against Staphylococcus aureus ATCC 11632 assessed as growth inhibition after 24 hr by two-fold serial dilution method. The note with it: ATCC 11632, 24 h.
A further experiment has as its system Escherichia coli. Briefly: Antibacterial activity against Escherichia coli ATCC 35218 assessed as growth inhibition after 24 hr by two-fold serial dilution method. The note with it: ATCC 35218, 24 h.
The test system of another experiment is Bacillus cereus. Briefly: Antibacterial activity against Bacillus cereus MTCC 7350 assessed as growth inhibition after 24 hr by two-fold serial dilution method. The conditions noted are these: MTCC 7350, 24 h.

Take `c1ccc(-c2nc3ccccc3[nH]2)cc1`: the MIC in the experiment on Enterococcus faecalis is 12.5 µg/mL (≈ 64.4 µM); in the experiment with Salmonella typhi, 6.25 µg/mL (≈ 32.2 µM); in the experiment on Pseudomonas aeruginosa, 12.5 µg/mL (≈ 64.4 µM); with Staphylococcus aureus it was 12.5 µg/mL (≈ 64.4 µM); with Escherichia coli, 50 µg/mL (≈ 257 µM); in the experiment with Bacillus cereus, 50 µg/mL (≈ 257 µM).
`Oc1ccccc1-c1nc2ccccc2[nH]1`: the MIC with Enterococcus faecalis worked out at 50 µg/mL (≈ 238 µM); in the experiment on Salmonella typhi, 400 µg/mL (≈ 1900 µM); in the experiment with Pseudomonas aeruginosa, 25 µg/mL (≈ 119 µM); in the experiment with Staphylococcus aureus, 25 µg/mL (≈ 119 µM); in the experiment with Escherichia coli, 400 µg/mL (≈ 1900 µM); in the experiment with Bacillus cereus, 6.25 µg/mL (≈ 29.7 µM).
Turning to `Cc1ccc(-c2nc3ccccc3[nH]2)cc1`, the MIC is 50 µg/mL (≈ 240 µM) in the experiment on Enterococcus faecalis; 50 µg/mL (≈ 240 µM) with Salmonella typhi; 12.5 µg/mL (≈ 60 µM) in the experiment with Pseudomonas aeruginosa; 25 µg/mL (≈ 120 µM) in the experiment with Staphylococcus aureus; 50 µg/mL (≈ 240 µM) in the experiment with Escherichia coli; 200 µg/mL (≈ 960 µM) with Bacillus cereus.
On to `C(=C\c1ccc(-c2nc3ccccc3[nH]2)cc1)/c1ccccc1`, for which the MIC in the experiment with Enterococcus faecalis was determined as 25 µg/mL (≈ 84.4 µM); in the experiment on Salmonella typhi, 25 µg/mL (≈ 84.4 µM); in the experiment on Pseudomonas aeruginosa, 12.5 µg/mL (≈ 42.2 µM); in the experiment with Staphylococcus aureus it was 12.5 µg/mL (≈ 42.2 µM); with Escherichia coli, 50 µg/mL (≈ 169 µM); in the experiment on Bacillus cereus, 6.25 µg/mL (≈ 21.1 µM).
Turning to `Oc1ccc(-c2nc3ccccc3[nH]2)cc1`, the MIC in the experiment with Enterococcus faecalis came to 100 µg/mL (≈ 476 µM); with Salmonella typhi it was 400 µg/mL (≈ 1900 µM); in the experiment with Pseudomonas aeruginosa, 25 µg/mL (≈ 119 µM); in the experiment with Staphylococcus aureus it was 25 µg/mL (≈ 119 µM); with Escherichia coli, 400 µg/mL (≈ 1900 µM); with Bacillus cereus it was 50 µg/mL (≈ 238 µM).
In the case of `COc1ccc(-c2nc3ccccc3[nH]2)cc1`, the MIC in the experiment on Enterococcus faecalis turned out to be 25 µg/mL (≈ 111 µM); in the experiment on Salmonella typhi, 25 µg/mL (≈ 111 µM); with Pseudomonas aeruginosa, 25 µg/mL (≈ 111 µM); in the experiment on Staphylococcus aureus it was 12.5 µg/mL (≈ 55.7 µM); in the experiment with Escherichia coli, 50 µg/mL (≈ 223 µM); in the experiment on Bacillus cereus, 50 µg/mL (≈ 223 µM).
With `Clc1ccc(-c2nc3ccccc3[nH]2)cc1`, the minimal inhibitory concentration (MIC) in the experiment on Enterococcus faecalis came out at 12.5 µg/mL (≈ 54.7 µM); in the experiment on Salmonella typhi, 25 µg/mL (≈ 109 µM); with Pseudomonas aeruginosa it was 12.5 µg/mL (≈ 54.7 µM); with Staphylococcus aureus, 12.5 µg/mL (≈ 54.7 µM); with Escherichia coli it was 25 µg/mL (≈ 109 µM); with Bacillus cereus, 6.25 µg/mL (≈ 27.3 µM).
As to `O=[N+]([O-])c1ccc(-c2nc3ccccc3[nH]2)cc1`, the MIC in the experiment with Enterococcus faecalis was found to be 25 µg/mL (≈ 105 µM); in the experiment on Salmonella typhi, 25 µg/mL (≈ 105 µM); in the experiment on Pseudomonas aeruginosa, 12.5 µg/mL (≈ 52.3 µM); in the experiment on Staphylococcus aureus it was 50 µg/mL (≈ 209 µM); in the experiment on Escherichia coli it was 50 µg/mL (≈ 209 µM); with Bacillus cereus, 25 µg/mL (≈ 105 µM).
Turning to `CC1(C)S[C@@H]2[C@H](NC(=O)[C@H](N)c3ccccc3)C(=O)N2[C@H]1C(=O)O` [AMPICILLIN], the MIC in the experiment with Enterococcus faecalis was 400 µg/mL (≈ 1140 µM); with Salmonella typhi, 6.25 µg/mL (≈ 17.9 µM); in the experiment on Pseudomonas aeruginosa, 50 µg/mL (≈ 143 µM); in the experiment on Staphylococcus aureus, 50 µg/mL (≈ 143 µM); with Escherichia coli it was 400 µg/mL (≈ 1140 µM); with Bacillus cereus, 50 µg/mL (≈ 143 µM).
`O=C(O)c1cn(C2CC2)c2cc(N3CCNCC3)c(F)cc2c1=O` [CIPROFLOXACIN]: the MIC amounted to 3.12 µg/mL (≈ 9.42 µM) in the experiment on Salmonella typhi and 1.25 µg/mL (≈ 3.77 µM) in the experiment on Pseudomonas aeruginosa.

As a reminder, the MIC is the lowest concentration found to suppress growth.
